# Experimental data: patent US5324648A, “Substituted isocoumarins as serine protease inhibitors and anti-inflammatory agents” (Georgia Tech Research Corporation, priority 1992, dated 1994)
# Like-named read-outs stand apart in the source and are kept apart here.
# Experiments:
# Format in all cases: biochemical
# complement protein D = complement protein D (Homo sapiens, UniProt P00746); test: Inactivation rate of complement protein D; conditions: Table II; pH 7.5, 25° C; [I] 0.05 to 1.29 mM; read-out: kobs/[I]
# complement protein D, sequence (P00746 26-253): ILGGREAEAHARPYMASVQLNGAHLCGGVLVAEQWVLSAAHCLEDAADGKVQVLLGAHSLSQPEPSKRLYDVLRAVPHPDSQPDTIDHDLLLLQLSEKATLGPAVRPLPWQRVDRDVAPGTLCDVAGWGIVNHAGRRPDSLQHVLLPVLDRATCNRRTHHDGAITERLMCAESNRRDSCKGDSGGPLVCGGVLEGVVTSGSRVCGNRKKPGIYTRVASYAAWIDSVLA
# Experimental: (§1) Inactivation rates of serine proteases by substituted isocoumarins were measured by the incubation method. An aliquot of inhibitor (25 or 50 μl) in Me2 SO was added to a buffered enzyme solution (0.01-2.3 μM) to initiate the inactivation. Aliquots (50 μl) were withdrawn at various intervals and the residual enzymatic activity was measured. Me2 SO concentration in the reaction mixture was 8-12% (v/v). 0.1 Hepes, 0.01M CaCl2, pH 7.5 buffer was utilized for trypsin and coagulation enzymes. 0.1M Hepes, 0.5M NaCl, pH 7.5 was utilized for other serine proteases. The inhibitor concentrations are shown in all the tables. Peptide thioesters or peptide nitroanilides with appropriate sequence were used as substrates for various serine proteases. All peptide thioester hydrolysis rates were measured with assay mixtures containing 4,4'-dithiodipyridine (ε324 =19800M^-1 cm^-1; Grasetti & Murray, Arch. Biochem. Biophys. 119, pp 41-49 (1967)). Peptide 4-nitroanilide nitroanilide hydrolysis was measured at 410 nm (ε410 =8800M^-1 cm^-1; Erlanger et al., Arch. Biochem. Biophys. 95, pp 271-278 (1961)). First order inactivation rate constant (kobs) were obtained from plots of ln (vt /vo) vs time, and the correlation coefficients were greater than 0.98.
# (§2) ^a Conditions were 0.1M Hepes, 0.5M NaCl, pH 7.5, 8-10% Me2 SO
# (§3) and 25° C. Inactivation rates were measured by incubation method.
# (§4) Enzyme concentrations were as follows: protein D, 1-9 μM; C2, 0.7-1
# (§5) μM; B, 1.8 μM; Bb, 0.3-0.8 μM; Cl^- s, 0.07 μM; Cl^-
# Cl^- s = target: T1, Cl^- s (Homo sapiens, UniProt P09871); test: Inactivation rate of complement protein C1s; conditions: Table II; pH 7.5, 25° C; [I] 0.8 to 44 μM; read-out: kobs/[I]
# T1 construct: Cl^- s^e
# T1 sequence (P09871 438-688 limits assumed): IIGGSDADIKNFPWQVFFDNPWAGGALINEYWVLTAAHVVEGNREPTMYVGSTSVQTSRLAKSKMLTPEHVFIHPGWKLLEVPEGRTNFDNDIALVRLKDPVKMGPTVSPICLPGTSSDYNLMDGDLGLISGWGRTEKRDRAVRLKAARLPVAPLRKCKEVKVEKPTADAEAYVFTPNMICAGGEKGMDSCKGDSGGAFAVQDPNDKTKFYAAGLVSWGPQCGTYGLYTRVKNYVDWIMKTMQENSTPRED
# T1 sequence (P09871 16-437 partner limits assumed): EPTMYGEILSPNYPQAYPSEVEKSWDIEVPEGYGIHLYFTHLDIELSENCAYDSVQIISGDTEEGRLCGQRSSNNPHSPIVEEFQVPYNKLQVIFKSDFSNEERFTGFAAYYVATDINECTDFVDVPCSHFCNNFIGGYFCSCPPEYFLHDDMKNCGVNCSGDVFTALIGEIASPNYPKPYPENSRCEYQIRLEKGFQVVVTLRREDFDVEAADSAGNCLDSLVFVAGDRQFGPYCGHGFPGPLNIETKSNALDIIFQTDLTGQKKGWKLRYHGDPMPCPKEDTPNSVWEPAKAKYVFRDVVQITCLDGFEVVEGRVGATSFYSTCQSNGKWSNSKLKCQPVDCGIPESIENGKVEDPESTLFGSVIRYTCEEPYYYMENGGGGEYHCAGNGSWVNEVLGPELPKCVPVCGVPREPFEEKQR
# Experimental: as §1, §2, §3, §4, §5
# bovine factor Xa = target: T2, bovine factor Xa (Bos taurus, UniProt P00743); test: Inactivation rate of bovine factor Xa; conditions: Table I; pH 7.5, 25° C; [I] 0.4 to 310 μM; read-out: kobs/[I]
# T2 construct: bovine factor Xa
# T2 sequence (P00743 234-492 limits assumed): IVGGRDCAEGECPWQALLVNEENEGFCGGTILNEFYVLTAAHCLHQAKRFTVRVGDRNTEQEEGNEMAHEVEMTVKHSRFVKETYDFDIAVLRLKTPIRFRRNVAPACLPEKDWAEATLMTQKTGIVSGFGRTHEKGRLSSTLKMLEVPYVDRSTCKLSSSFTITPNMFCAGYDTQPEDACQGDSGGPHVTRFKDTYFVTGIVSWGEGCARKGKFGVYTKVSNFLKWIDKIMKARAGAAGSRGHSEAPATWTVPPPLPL
# T2 sequence (P00743 41-180 partner limits assumed): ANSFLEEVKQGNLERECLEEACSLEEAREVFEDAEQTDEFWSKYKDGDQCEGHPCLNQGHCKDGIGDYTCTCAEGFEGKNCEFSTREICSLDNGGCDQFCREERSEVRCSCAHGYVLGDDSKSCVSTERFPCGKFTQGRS
# human factor XIIa = target: T3, human factor XIIa (Homo sapiens, UniProt P00748); test: Inactivation rate of human factor XIIa; conditions: pH 7.5, 25° C, read-out: kobs/[I]
# T3 construct: human factor XIIa
# T3 sequence (P00748 373-615 limits assumed): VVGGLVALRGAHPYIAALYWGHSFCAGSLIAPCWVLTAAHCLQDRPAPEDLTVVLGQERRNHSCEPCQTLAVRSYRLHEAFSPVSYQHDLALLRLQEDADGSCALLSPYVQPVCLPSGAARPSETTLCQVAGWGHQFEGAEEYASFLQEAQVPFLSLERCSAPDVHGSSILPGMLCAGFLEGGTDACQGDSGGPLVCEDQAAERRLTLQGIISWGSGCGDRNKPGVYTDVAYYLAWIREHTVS
# T3 sequence (P00748 20-372 partner limits assumed): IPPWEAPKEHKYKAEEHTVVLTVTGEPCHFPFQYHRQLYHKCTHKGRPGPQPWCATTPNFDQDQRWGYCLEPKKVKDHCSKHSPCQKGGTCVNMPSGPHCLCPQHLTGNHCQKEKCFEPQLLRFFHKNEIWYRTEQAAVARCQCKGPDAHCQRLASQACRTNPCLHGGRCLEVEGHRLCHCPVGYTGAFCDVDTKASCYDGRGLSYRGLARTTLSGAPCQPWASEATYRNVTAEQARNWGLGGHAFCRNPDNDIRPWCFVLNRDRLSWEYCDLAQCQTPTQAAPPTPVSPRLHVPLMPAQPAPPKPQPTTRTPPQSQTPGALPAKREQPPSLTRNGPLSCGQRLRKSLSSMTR
# How it was run: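 Incubation method: isocoumarin in Me2SO added to enzyme (0.01-2.3 μM) in 0.1M Hepes, 0.01M CaCl2, pH 7.5, 8-12% Me2SO, 25° C. Residual activity sampled over time with peptide thioester (4,4'-dithiodipyridine) or 4-nitroanilide (410 nm) substrates. kobs taken from ln(vt/vo) vs time.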
# [1] = target: T4, human leukocyte elastase (HLE) (Homo sapiens, UniProt P08246); test: Inactivation of human leukocyte elastase (HLE)
# T4 construct: from tissue; host or cells: human leukocytes (from the name)
# T4 sequence (P08246 30-267): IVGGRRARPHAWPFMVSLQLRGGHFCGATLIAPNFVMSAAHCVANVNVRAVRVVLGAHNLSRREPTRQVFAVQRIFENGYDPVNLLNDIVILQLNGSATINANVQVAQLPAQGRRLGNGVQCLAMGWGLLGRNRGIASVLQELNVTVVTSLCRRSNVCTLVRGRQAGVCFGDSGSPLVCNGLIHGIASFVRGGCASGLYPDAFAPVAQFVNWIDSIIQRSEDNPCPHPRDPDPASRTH
# Experimental: Inactivation rates of serine proteases by substituted isocoumarins were measured by the incubation method. An aliquot of inhibitor (25 or 50 μl) in Me2 SO was added to a buffered enzyme solution (0.01-2.3 μM) to initiate the inactivation. Aliquots (50 μl) were withdrawn at various intervals and the residual enzymatic activity was measured. Me2 SO concentration in the reaction mixture was 8-12% (v/v). 0.1 Hepes, 0.01M CaCl2, pH 7.5 buffer was utilized for trypsin and coagulation enzymes. 0.1M Hepes, 0.5M NaCl, pH 7.5 was utilized for other serine proteases. […] Peptide thioesters or peptide nitroanilides with appropriate sequence were used as substrates for various serine proteases. All peptide thioester hydrolysis rates were measured with assay mixtures containing 4,4'-dithiodipyridine (ε324 =19800M^-1 cm^-1 ; Grasetti & Murray, Arch. Biochem. Biophys. 119, pp 41-49 (1967)). Peptide 4-nitroanilide nitroanilide hydrolysis was measured at 410 nm (ε410 =8800M^-1 cm^-1 ; Erlanger et al., Arch. Biochem. Biophys. 95, pp 271-278 (1961)). First order inactivation rate constant (kobs) were obtained from plots of ln (vt /vo) vs time, and the correlation coefficients were greater than 0.98.
# ^a Inactivation rates were measured at 0.1M Hepes, 0.5 NaCl, pH 7.5,
# 8-12% Me2 SO and 25° C. by incubation method.
# ^a Inhibition rates were measured in 0.1M Hepes, 0.05M NaCl, pH 7.5
# buffer, 8-9% Me2 SO and at 25° C.
# ^a Inhibition constants were in 0.1M Hepes, 0.5M NaCl, pH 7.5 buffer,
# 8-9% Me2 SO and at 25° C.
# ^a Inhibition rates were measured in 0.1M Hepes, 0.5M NaCl, 2.5%
# Me2 SO, pH 7,5 and at 25° C.
# ^a Inhibition was measured in 0.1M Hepes, 0.5M NaCl, pH 7.5 buffer,
# 5-10% Me2 SO and at 25° C. Suc--Val--Pro--Phe--NA (0.48 mM)
# was used as the substrate for chymotrypsin and cat G.
# ^a Inhibition rates were measured in 0.1M Hepes, 0.5M NaCl, pH 7.5
# [2] = Table IV, pH 7.5, 25° C, [I] 0.001 to 0.18 mM, read-out: kobs/[I]
"kinact/KI (human factor XIIa; Table VIII, [I] 3.6-4.9 μM)","kinact/KI ([1]; pH 7.5, Table X, biphasic inhibition, read-out: kobs/[I] (biphasic, first value))","kinact/KI ([1]; pH 7.5, Table X, biphasic inhibition, read-out: kobs/[I] (biphasic, second value))",Compound,kinact/KI (complement protein D),kinact/KI (Cl^- s),kinact/KI (bovine factor Xa),"kinact/KI (human factor XIIa; Table I, [I] 3 to 330 μM)","kinact/KI [1, 2]"
,,,"O=c1oc(Cl)c(Cl)c2ccccc12 [3,4-dichloroisocoumarin, reference compound]",192 M⁻¹ s⁻¹,170 M⁻¹ s⁻¹,,,
,,,N=C(N)SCCOc1oc(=O)c2ccccc2c1Cl [3-(2-isothiureidoethoxy)-4-chloroisocoumarin],61 M⁻¹ s⁻¹,,5600 M⁻¹ s⁻¹,39000 M⁻¹ s⁻¹,220 M⁻¹ s⁻¹
,,,NCCCOc1oc(=O)c2ccccc2c1Cl [3-(3-aminopropoxy)-4-chloroisocoumarin],,,160 M⁻¹ s⁻¹,190 M⁻¹ s⁻¹,860 M⁻¹ s⁻¹
,,,N=C(N)SCCCOc1oc(=O)c2ccccc2c1Cl [3-(3-isothiureidopropoxy)-4-chloroisocoumarin],145 M⁻¹ s⁻¹,130000 M⁻¹ s⁻¹,220 M⁻¹ s⁻¹,27000 M⁻¹ s⁻¹,2000 M⁻¹ s⁻¹
,,,N=C(N)SCCCOc1oc(=O)c2cc(N)ccc2c1Cl [7-amino-4-chloro-3-(3-isothiureidopropoxy)isocoumarin],55 M⁻¹ s⁻¹,23000 M⁻¹ s⁻¹,1640 M⁻¹ s⁻¹,6200 M⁻¹ s⁻¹,130 M⁻¹ s⁻¹
,,,"CCOc1oc(=O)c2cc(NC(=N)N)ccc2c1Cl [7-guanidino-3-ethoxy-4-chloroisocoumarin, 7-guanidino-4-chloro-3-ethoxyisocoumarin]",193 M⁻¹ s⁻¹,690 M⁻¹ s⁻¹,26700 M⁻¹ s⁻¹,22000 M⁻¹ s⁻¹,81000 M⁻¹ s⁻¹
,,,COc1cc2ccc(NC(=N)N)cc2c(=O)o1 [7-guanidino-3-methoxyisocoumarin],,,460 M⁻¹ s⁻¹,520 M⁻¹ s⁻¹,320 M⁻¹ s⁻¹
,,,N=C(N)Nc1ccc2c(Cl)c(OCCc3ccccc3)oc(=O)c2c1 [7-guanidino-4-chloro-3-(2-phenylethoxy)isocoumarin],92 M⁻¹ s⁻¹,90 M⁻¹ s⁻¹,96000 M⁻¹ s⁻¹,26000 M⁻¹ s⁻¹,73 M⁻¹ s⁻¹
,,,COc1oc(=O)c2cc(NC(=N)N)ccc2c1Cl [7-guanidino-4-chloro-3-methoxyisocoumarin],252 M⁻¹ s⁻¹,660 M⁻¹ s⁻¹,3100 M⁻¹ s⁻¹,20000 M⁻¹ s⁻¹,6400 M⁻¹ s⁻¹
50000 M⁻¹ s⁻¹,46000 M⁻¹ s⁻¹,5730 M⁻¹ s⁻¹,"N=C(N)SCCOc1oc(=O)c2cc(NC(=O)Nc3ccccc3)ccc2c1Cl [PhNHCONH-CiTEtOIC, 7-(phenylcarbamoylamino)-4-chloro-3-(2-isothiureidoethoxy)isocoumarin]",,,,,
